{"source": "patent US7897182B2", "about": "“Composition comprising bamboo extract and the compounds isolated therefrom showing treating and preventing activity for inflammatory and blood circulation disease” (Unigen, Inc., priority 2003, dated 2011)", "key": {"iNOS gene expression": {"test_system": "iNOS gene expression", "experiment": "iNOS gene expression in LPS-treated RAW 264.7 cells (RT-PCR)", "assay_type": "cell-based, Murine", "settings": "for Inhibition of Gene expression (%) (iNOS): LPS, 24 hours", "description": "To investigate the inhibiting effect on gene expression, the extract or compound of the present invention was treated to the cell and the RNA extracted therefrom was used in the RT-PCR to evaluate the quantitative gene expression. […] And RNA was extracted by conventional extraction method using Trizol reagent (Gibco BRL) to use in the following reverse transcription-polymerase chain reaction. RT-PCR was performed according to the RT reaction (25° C. 10 min, 48° C. 30 min, 95° C. 5 min, 4° C. 10 min; 1 cycle) and subsequent PCR (50° C. 2 min, 95° C. 10 min, 95° C. 15 sec, 60° C. 1 min, 40 cycles) method well known in the art. As an internal control, 18S ribosomal RNA was used."}, "[1]": {"test_system": "LDL receptor defected mouse", "experiment": "Blood lipid in LDL defected mouse on high fat diet", "assay_type": "in vivo", "settings": "lovastatin 4 mg/kg oral", "description": "(§1) Eight-weeks old male LDL receptor defected mouse accumulated to high fat feed were divided into two dose administration groups and one high dosing group of which group consist of six mice per group, Injectable distilled water was used as a negative control group, lovastain well known to be as an atheriosclerosis treating agent was administrated in an amount of 4 mg/kg per body weight as a positive control group, Bamboo was administrated to two treatment group in an amount of 50 and 100 mg/kg per body weight respectively, and one high dosing treatment group in an amount of 500 mg/kg per body weight for 20 weeks by way of compulsory oral administration after weighing the body weight twice a day (See Table 6).\nAnd then blood plasma was isolated by centrifugation at the speed of 11,000 g for 10 minutes and left alone at −70° C. before use. The value of blood lipid was determined by three categories i.e., TC (Total cholesterol), HDL-C (High-density lipoprotein cholesterol) and TG (Triglycerides) at KRIBB in Korea."}, "[2]": {"test_system": "LDL receptor defected mouse", "experiment": "Arteriosclerosis lesion area (Oil red O, aortic valve) in LDL defected mouse", "assay_type": "in vivo", "settings": "positive control, lovastatin 4 mg/kg", "description": "During the experiment, the environment of the cage was maintained to the temperature of 23±2° C. and the relative humidity of […] under the artificial lamp for 12 hours, and less than five mice were bred in each mouse cage providing with free access to water (disinfected distilled water) and normal fatty feed (Harlan 2018S, Indianapolis USA).\nas §1, with “6). […]” for “6).”\nThe calculation of lesion area was performed by staining the lesion formed at the position between 3rd cervical […] and aortic valve and photocopying and then the lesion area was calculated by using computer-assisted morphometry (TDI microscope Image Analyzer, USA) comparing with control group."}, "HUVEC": {"test_system": "HUVEC", "experiment": "Cell toxicity test, modified MTT method, HUVEC", "assay_type": "cell-based, Human", "description": "The cell toxicity of tricin compound of Example 5 was tested using modified MTT method (J. Immunological Methods, 119, pp 203-210, 1989).\n200 μl of HUVEC (2×10^5 cells/ml) on flat bottom 96-well microtiter plates (Nunc, Sweden) were treated with tricin prepared in various concentrations and cultured at 37° C. for 24 hours.\n50 μl of MTT solution (1 mg/ml) was added to each well and incubated at 37° C. for 4 hours. And then supernatant was removed.\nTo detect formazan crystal, 100 μl of DMSO was also added to each well and the colorigenic analysis was performed at 550 nm using microplate reader (Power wave-XS, Bio-Tek, USA)."}, "u-PA gene expression": {"test_system": "u-PA gene expression", "experiment": "u-PA mRNA expression in HUVEC (quantitative PCR)", "assay_type": "cell-based, Human", "settings": "for mRNA expression (fold), u-PA: HUVEC, control = 1", "description": "(§2) RNA was isolated from HUVEC cell by Rneasy mini kit (cat#74103, Qiagen Co.) according to the manufacturer's instruction. And RT-PCT reaction was performed by using quantitative PCR method (SDS 7700, Applied biosystems Co., U.S.A.).\n(§3) 5 μl of cDNA product obtained in the reverse transcription (RT) was aliquoted into each well of 96-well plate and then the mixture containing 5.6 mM MgCl2, 1×PCR buffer, 2 mM dNTP, 0.05% gelatin, 1 μM of a pair of each target gene primer or 0.16 μM of house keeping gene primer, 0.5 μM of target gene probe or 0.025 μM of housekeeping gene probe, 1.25 U of Taq polymerase was added thereto for polymerase chain reaction (PCR) (50° C. 2 min, 95° C. 10 min, 95° C. 15 sec, 60° C. 1 min, 40 cycles).\n(§4) As the result, final cT value was read and calculated."}, "RAW 264.7 cells": {"test_system": "RAW 264.7 cells", "experiment": "Cell viability at the tricin concentrations of the NO test (Table 9)"}, "NO production": {"test_system": "NO production", "experiment": "Inhibition of NO production in LPS-treated RAW 264.7 cells (Griess reagent)", "assay_type": "cell-based, Murine", "description": "Murine macrophage cell line RAW 264.7 cell (ATCC, Rockville, Md., USA) were grown in DMEM (Gibco BRL Co., Ltd., USA), supplemented with 2.0 mM L-arginine, 100 μg/ml penicillin-streptomycin and 10% fetal bovine serum at 37° C. in 5% CO2 and 95% air condition in humidified incubator.\nTo test the inhibiting activity of bamboo extract and the compound isolated therefrom on nitric oxide (NO), which is one of inflammatory factors, the increase of NO was determined in the cells treated with extract or compound of the present invention.\n200 μl of RAW 264.7 cells (1×10^6 cells/ml) were seeded onto each well of 96-well microtiter plate (Nunc, Sweden) and incubated for 3 hours in DMEM media containing 10% FBS. […]\nAnd then 100 μl of cell supernatant of each well was transferred to new 96 well plate and 50 μl of Griess reagent (0.1% N-(1-naphtyl)ethylenediamine 2HCl, 1% sulfanilamide in 5% conc. H3PO4 in H2O) was added thereto followed by incubating for 10 mins at R.T. The absorbance was measured at 540 or 550 nm using ELISA reader (Power wave-XS, Bio-Tek, USA)."}, "eNOS gene expression": {"test_system": "eNOS gene expression", "experiment": "eNOS mRNA expression in HUVEC (quantitative PCR)", "assay_type": "cell-based, Human", "settings": "for mRNA expression (fold), eNOS: HUVEC, control = 1", "description": "as §2, §3, §4"}, "VEGF gene expression": {"test_system": "VEGF gene expression", "experiment": "VEGF mRNA expression in HUVEC (quantitative PCR)", "assay_type": "cell-based, Human", "settings": "for mRNA expression (fold), VEGF: HUVEC, control = 1", "description": "as §2, §3, §4"}, "[3]": {"settings": "Mus musculus, RAW264.7, read-out: NO inhibition rate (%)"}}}
{"smiles": "COc1cc(/C=C/C(=O)CC(=O)/C=C/c2ccc(O)c(OC)c2)ccc1O", "note": "[Curcumin, curcumin]", "values": [{"measurement": "Comparative iNOS expression (% of control, DMSO)", "setting": "iNOS gene expression; 0.032 μg/ml", "result": "80.5 % of control"}, {"measurement": "Inhibition of Gene expression (%) (iNOS)", "setting": "iNOS gene expression; 0.032 μg/ml", "result": 40, "unit": "%"}, {"measurement": "Comparative iNOS expression (% of control, DMSO)", "setting": "iNOS gene expression; 0.16 μg/ml", "result": "75.7 % of control"}, {"measurement": "Inhibition of Gene expression (%) (iNOS)", "setting": "iNOS gene expression; 0.16 μg/ml", "result": 40, "unit": "%"}, {"measurement": "Comparative iNOS expression (% of control, DMSO)", "setting": "iNOS gene expression; 0.8 μg/ml", "result": "64.4 % of control"}, {"measurement": "Inhibition of Gene expression (%) (iNOS)", "setting": "iNOS gene expression; 0.8 μg/ml", "result": 40, "unit": "%"}, {"measurement": "Comparative iNOS expression (% of control, DMSO)", "setting": "iNOS gene expression; 4 μg/ml", "result": "49.9 % of control"}, {"measurement": "Inhibition of Gene expression (%) (iNOS)", "setting": "iNOS gene expression; 4 μg/ml", "result": 90, "unit": "%"}, {"measurement": "Inhibition of Gene expression (%) (iNOS)", "setting": "iNOS gene expression; 12.5 μg/ml", "result": 90, "unit": "%"}, {"measurement": "Comparative iNOS expression (% of control, DMSO)", "setting": "iNOS gene expression; 20 μg/ml", "result": "1.3 % of control"}, {"measurement": "IC50", "setting": "iNOS gene expression; Mus musculus, RAW264.7, calculated from the expression data, read-out: IC50 (μg/ml) on iNOS gene expression", "result": 5.3, "unit": "µg/mL"}, {"measurement": "concentration at which iNOS gene expression is inhibited by 90%", "setting": "iNOS gene expression; real time-gene expression analysis", "result": 4, "unit": "µg/mL"}]}
{"smiles": "CC[C@H](C)C(=O)O[C@H]1C[C@@H](C)C=C2C=C[C@H](C)[C@H](CC[C@@H]3C[C@@H](O)CC(=O)O3)[C@H]21", "note": "[Lovastatin, lovastatin]", "values": [{"measurement": "HDL-C", "setting": "[1]", "result": "25.00 ± 7.07"}, {"measurement": "LDL-C", "setting": "[1]", "result": "3485.00 ± 304.06"}, {"measurement": "TC", "setting": "[1]", "result": "3750.00 ± 42.43"}, {"measurement": "TG", "setting": "[1]", "result": "300.00 ± 14.14"}, {"measurement": "inhibition of the formation of arteriosclerosis compared with control group", "setting": "[2]", "result": "about 47%"}]}
{"smiles": "O=C(O)/C=C/c1ccc(O)cc1", "note": "[p-coumaric acid]", "values": [{"measurement": "cellular toxicity, in words", "setting": "HUVEC", "result": "no cellular toxicity"}]}
{"smiles": "COc1cc(-c2cc(=O)c3c(O)cc(O)cc3o2)cc(OC)c1O", "note": "[tricin]", "values": [{"measurement": "expression of u-PA gene in HUVEC, in words", "setting": "u-PA gene expression", "result": "increased"}, {"measurement": "mRNA expression (fold), u-PA", "setting": "u-PA gene expression; tricin 0.5 μg/ml", "result": 1.619, "unit": "fold"}, {"measurement": "mRNA expression (fold), u-PA", "setting": "u-PA gene expression; tricin 1.0 μg/ml", "result": 1.103, "unit": "fold"}, {"measurement": "mRNA expression (fold), u-PA", "setting": "u-PA gene expression; tricin 5.0 μg/ml", "result": 2.962, "unit": "fold"}, {"measurement": "toxicity at the active concentrations, in words", "setting": "RAW 264.7 cells; 25, 12.5 and 6.5 μg/ml", "result": "no toxicity"}, {"measurement": "Cell viability (%)", "setting": "RAW 264.7 cells; tricin 1.625 μg/ml", "result": 126, "unit": "%"}, {"measurement": "Cell viability (%)", "setting": "RAW 264.7 cells; tricin 3.25 μg/ml", "result": 99, "unit": "%"}, {"measurement": "Cell viability (%)", "setting": "RAW 264.7 cells; tricin 6.5 μg/ml", "result": 96, "unit": "%"}, {"measurement": "Cell viability (%)", "setting": "RAW 264.7 cells; tricin 12.5 μg/ml", "result": 92, "unit": "%"}, {"measurement": "Cell viability (%)", "setting": "RAW 264.7 cells; tricin 25 μg/ml", "result": 80, "unit": "%"}, {"measurement": "Cell viability (%)", "setting": "RAW 264.7 cells; tricin 50 μg/ml", "result": 49, "unit": "%"}, {"measurement": "cellular toxicity", "setting": "HUVEC; HUVEC, 5 μg/ml, 24 hours, MTT", "result": 51, "unit": "%"}, {"measurement": "NO inhibition, in words", "setting": "NO production; 25, 12.5 and 6.5 μg/ml", "result": "strong NO inhibition rate"}, {"measurement": "inhibition at 1.625 µg/mL", "setting": "NO production; [3]", "result": "25.9 ± 0.006", "unit": "%"}, {"measurement": "inhibition at 3.25 µg/mL", "setting": "NO production; [3]", "result": "38.1 ± 0.005", "unit": "%"}, {"measurement": "inhibition at 6.5 µg/mL", "setting": "NO production; [3]", "result": "52 ± 0.015", "unit": "%"}, {"measurement": "inhibition at 25 µg/mL", "setting": "NO production; [3]", "result": "74.6 ± 0.009", "unit": "%"}, {"measurement": "inhibition at 50 µg/mL", "setting": "NO production; [3]", "result": "49.7 ± 0.007", "unit": "%"}, {"measurement": "inhibition at 12.5 µg/mL", "setting": "NO production; Mus musculus, RAW264.7, tricin 12.5 μg/ml, read-out: NO inhibition rate (%)", "result": "71.2 ± 0.003", "unit": "%"}, {"measurement": "expression of eNOS in HUVEC, in words", "setting": "eNOS gene expression", "result": "increased"}, {"measurement": "mRNA expression (fold), eNOS", "setting": "eNOS gene expression; tricin 0.5 μg/ml", "result": 3.024, "unit": "fold"}, {"measurement": "mRNA expression (fold), eNOS", "setting": "eNOS gene expression; tricin 1.0 μg/ml", "result": 4.711, "unit": "fold"}, {"measurement": "mRNA expression (fold), eNOS", "setting": "eNOS gene expression; tricin 5.0 μg/ml", "result": 0.452, "unit": "fold"}, {"measurement": "expression of VEGF in HUVEC, in words", "setting": "VEGF gene expression", "result": "increased"}, {"measurement": "mRNA expression (fold), VEGF", "setting": "VEGF gene expression; tricin 0.5 μg/ml", "result": 2.046, "unit": "fold"}, {"measurement": "mRNA expression (fold), VEGF", "setting": "VEGF gene expression; tricin 1.0 μg/ml", "result": 1.469, "unit": "fold"}, {"measurement": "mRNA expression (fold), VEGF", "setting": "VEGF gene expression; tricin 5.0 μg/ml", "result": 1.545, "unit": "fold"}]}
